Data from patent US20230295197A1, “STAT5 and STAT6 Degraders and Uses Thereof” (REGENTS OF THE UNIVERSITY OF MICHICAN, priority 2022, published 2023).
Read-outs that look alike come from different tables or passages of the source. *1 amine or outer side, *2 acyl side, *3 side chain or, on linkers, in order; H or OH if unused. Where a SMILES comes first, the peptide text is derived from it. [ ]: non-standard residue; d: D form. The star is where a group is joined. Benzothienyl2CO(5-CF2PO3H2) = O=C(c1cc2cc(C(F)(F)P(=O)(O)O)ccc2s1)*; βAla(N-(4-Br-phenyl)) = O=C(CCN(c1ccc(Br)cc1)[*:1])[*:2]; NHBn(4-(4-Me-thiazol-5-yl)) = Cc1ncsc1-c1ccc(CN*)cc1; Hyp = O=C(O)[C@@H]1C[C@@H](O)CN1; Tle = CC(C)(C)[C@H](N)C(=O)O; Ava = NCCCCC(=O)O

Molecular target: T1, STAT6 (Homo sapiens, UniProt P42226)
T1 construct: endogenous in cells; host or cells: MOLM-16, KU-812, SKNO1, MB231, L1236
T1 sequence (P42226 1-847): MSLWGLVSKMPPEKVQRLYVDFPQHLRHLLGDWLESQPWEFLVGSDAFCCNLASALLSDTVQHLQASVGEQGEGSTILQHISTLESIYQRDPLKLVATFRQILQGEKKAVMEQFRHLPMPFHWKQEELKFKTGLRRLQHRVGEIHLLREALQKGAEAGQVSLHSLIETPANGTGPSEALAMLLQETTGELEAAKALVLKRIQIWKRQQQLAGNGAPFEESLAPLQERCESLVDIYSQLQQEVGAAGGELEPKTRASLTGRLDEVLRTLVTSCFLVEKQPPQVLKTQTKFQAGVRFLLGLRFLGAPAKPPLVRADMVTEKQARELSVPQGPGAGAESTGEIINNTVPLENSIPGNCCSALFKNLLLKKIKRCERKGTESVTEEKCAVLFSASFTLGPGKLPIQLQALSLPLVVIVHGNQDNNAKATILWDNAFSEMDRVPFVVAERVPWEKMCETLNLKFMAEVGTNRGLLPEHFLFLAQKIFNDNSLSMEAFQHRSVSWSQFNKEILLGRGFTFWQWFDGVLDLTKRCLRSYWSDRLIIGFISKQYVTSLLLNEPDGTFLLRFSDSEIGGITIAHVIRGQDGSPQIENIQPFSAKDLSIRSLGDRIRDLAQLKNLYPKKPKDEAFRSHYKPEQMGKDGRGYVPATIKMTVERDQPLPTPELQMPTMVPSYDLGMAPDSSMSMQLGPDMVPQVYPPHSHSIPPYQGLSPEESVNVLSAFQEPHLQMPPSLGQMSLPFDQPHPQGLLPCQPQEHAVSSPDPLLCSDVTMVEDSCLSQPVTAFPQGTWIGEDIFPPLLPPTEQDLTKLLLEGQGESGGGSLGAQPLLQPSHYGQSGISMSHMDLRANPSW
Experiment: Immunoblotting (Western blot) analysis of STAT6 degradation efficiency of degraders in treated cells
Type: cell-based
In short: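 Degradation read by quantitative near-infrared Western blot: equal protein loads (20-40 μg) from compound-treated versus untreated cells, probed overnight at 4° C. for STAT5 or STAT6 with GAPDH reference. Compound concentrations and exposure times as indicated; cells grown in medium with 10% FBS at 37° C.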

[1] = MOLM-16 cells, class symbols, read-out: DC50 S6 MOLM-16
[2] = L1236 cells, read-out: DC50 S6 L1236

With `CC(C)(C)[C@H](NC(=O)c1cc2cc(C(F)(F)P(=O)(O)O)ccc2s1)C(=O)N1Cc2cc(OCC(=O)NCCC#Cc3ccc4c(c3)C(=O)N(C3CCC(=O)NC3=O)C4=O)ccc2C[C@H]1C(=O)N1CCC[C@H](c2ccccc2)C1` (stereo partly drawn) [Compound 552, ((2-(((2S)-1-((3S)-7-(2-((4-(2-(2,6-dioxopiperidin-3-yl)-1,3-dioxoisoindolin-5-yl)but-3-yn-1-yl)amino)-2-oxoethoxy)-3-((R)-3-phenylpiperidine-1-carbonyl)-3,4-dihydroisoquinolin-2(1H)-yl)-3,3-dimethyl-1-oxobutan-2-yl)carbamoyl)benzo[b]thiophen-5-yl)difluoromethyl)phosphonic acid] the DC50 [1] was > 10 µM.
In the case of `CC(C)(C)[C@H](NC(=O)c1cc2cc(C(F)(F)P(=O)(O)O)ccc2s1)C(=O)N1C[C@@H](OCC(=O)NCCC#Cc2cccc3c2C(=O)N(C2CCC(=O)NC2=O)C3=O)C[C@H]1C(=O)N1CCC[C@H](c2ccccc2)C1` (stereo partly drawn) [Compound 495, ((2-(((2S)-1-((2S,4S)-4-(2-((4-(2-(2,6-dioxopiperidin-3-yl)-1,3-dioxoisoindolin-4-yl)but-3-yn-1-yl)amino)-2-oxoethoxy)-2-((R)-3-phenylpiperidine-1-carbonyl)pyrrolidin-1-yl)-3,3-dimethyl-1-oxobutan-2-yl)carbamoyl)benzo[b]thiophen-5-yl)difluoromethyl)phosphonic acid], the DC50 [1] is reported as > 10 µM.
In the case of `CC(C)(C)[C@H](NC(=O)c1cc2cc(C(F)(F)P(=O)(O)O)ccc2s1)C(=O)N1CCN(C(=O)CC(=O)NCCCCCCCCCC#Cc2cccc3c2C(=O)N(C2CCC(=O)NC2=O)C3=O)C[C@H]1C(=O)N1CCC[C@H](c2ccccc2)C1` (stereo partly drawn) [Compound 533, ((2-(((2S)-1-((2S)-4-(3-((11-(2-(2,6-dioxopiperidin-3-yl)-1,3-dioxoisoindolin-4-yl)undec-10-yn-1-yl)amino)-3-oxopropanoyl)-2-((R)-3-phenylpiperidine-1-carbonyl)piperazin-1-yl)-3,3-dimethyl-1-oxobutan-2-yl)carbamoyl)benzo[b]thiophen-5-yl)difluoromethyl)phosphonic acid], the DC50 [1] is reported as > 10 µM.
With `Cc1ncsc1-c1ccc(CNC(=O)[C@@H]2C[C@@H](O)CN2C(=O)[C@@H](NC(=O)CCCCNC(=O)CCN(C(=O)[C@@H]2CCCN2C(=O)[C@@H](NC(=O)c2cc3cc(C(F)(F)P(=O)(O)O)ccc3s2)C(C)(C)C)c2ccc(Br)cc2)C(C)(C)C)cc1` [Compound 401] ({Benzothienyl2CO(5-CF2PO3H2)}-[Tle]P[βAla(N-(4-Br-phenyl))][Ava][Tle][Hyp]-{NHBn(4-(4-Me-thiazol-5-yl))}) the DC50 (read-out: DC50 S6 MB231, MB231 cells) was > 10 µM.
With `Cc1ncsc1-c1ccc([C@H](C)NC(=O)[C@@H]2C[C@@H](O)CN2C(=O)[C@@H](NC(=O)CCCCNC(=O)CO[C@H]2C[C@@H](C(=O)N3CCO[C@H](c4ccccc4)C3)N(C(=O)[C@@H](NC(=O)c3cc4cc(C(F)(F)P(=O)(O)O)ccc4s3)C(C)(C)C)C2)C(C)(C)C)cc1` [Compound 428, (difluoro(2-(((S)-1-((2S,4S)-4-(2-((5-(((S)-1-((2S,4R)-4-hydroxy-2-(((S)-1-(4-(4-methylthiazol-5-yl)phenyl)ethyl)carbamoyl)pyrrolidin-1-yl)-3,3-dimethyl-1-oxobutan-2-yl)amino)-5-oxopentyl)amino)-2-oxoethoxy)-2-((R)-2-phenylmorpholine-4-carbonyl)pyrrolidin-1-yl)-3,3-dimethyl-1-oxobutan-2-yl)carbamoyl)benzo[b]thiophen-5-yl)methyl)phosphonic acid] the DC50 [2] was > 10 µM and the DC50 [1] was > 10 µM.
For `CC(C)(C)[C@H](NC(=O)c1cc2cc(C(F)(F)P(=O)(O)O)ccc2s1)C(=O)N1C[C@@H](OCC(=O)NCCCCC#Cc2cccc3c2C(=O)N(C2CCC(=O)NC2=O)C3=O)C[C@H]1C(=O)N1CCO[C@H](c2ccccc2)C1` (stereo partly drawn) [Compound 485, ((2-(((2S)-1-((2S,4S)-4-(2-((6-(2-(2,6-dioxopiperidin-3-yl)-1,3-dioxoisoindolin-4-yl)hex-5-yn-1-yl)amino)-2-oxoethoxy)-2-((R)-2-phenylmorpholine-4-carbonyl)pyrrolidin-1-yl)-3,3-dimethyl-1-oxobutan-2-yl)carbamoyl)benzo[b]thiophen-5-yl)difluoromethyl)phosphonic acid], the DC50 [1] was > 10 µM.
`CC(C)(C)[C@H](NC(=O)c1cc2cc(C(F)(F)P(=O)(O)O)ccc2s1)C(=O)N1C[C@@H](OCC(=O)NCCCCCCCCCC#Cc2cccc3c2C(=O)N(C2CCC(=O)NC2=O)C3=O)C[C@H]1C(=O)N1CCC[C@H](c2ccccc2)C1` (stereo partly drawn) [Compound 505, ((2-(((2S)-1-((2S,4S)-4-(2-((11-(2-(2,6-dioxopiperidin-3-yl)-1,3-dioxoisoindolin-4-yl)undec-10-yn-1-yl)amino)-2-oxoethoxy)-2-((R)-3-phenylpiperidine-1-carbonyl)pyrrolidin-1-yl)-3,3-dimethyl-1-oxobutan-2-yl)carbamoyl)benzo[b]thiophen-5-yl)difluoromethyl)phosphonic acid] was tested, and the DC50 [1] was > 10 µM.
`CC(C)(C)[C@H](NC(=O)c1cc2cc(C(F)(F)P(=O)(O)O)ccc2s1)C(=O)N1C[C@@H](NC(=O)CCCCCC#Cc2ccc3c(c2)CN(C2CCC(=O)NC2=O)C3=O)C[C@H]1C(=O)N1CCO[C@H](c2ccccc2)C1` (stereo partly drawn) [Compound 566, ((2-(((2S)-1-((2S,4S)-4-(8-(2-(2,6-dioxopiperidin-3-yl)-1-oxoisoindolin-5-yl)oct-7-ynamido)-2-((R)-2-phenylmorpholine-4-carbonyl)pyrrolidin-1-yl)-3,3-dimethyl-1-oxobutan-2-yl)carbamoyl)benzo[b]thiophen-5-yl)difluoromethyl)phosphonic acid] was tested, and the DC50 [2] was > 10 µM and the DC50 [1] was > 10 µM.
In the case of `Cc1ncsc1-c1ccc([C@H](CC(=O)NCCOCCOCCOCCC(=O)N[C@H]2C[C@@H](C(=O)N3CCO[C@H](c4ccccc4)C3)N(C(=O)[C@@H](NC(=O)c3cc4cc(C(F)(F)P(=O)(O)O)ccc4s3)C(C)(C)C)C2)NC(=O)[C@@H]2C[C@@H](O)CN2C(=O)[C@@H](NC(=O)C2(F)CC2)C(C)(C)C)cc1` [Compound 573, (difluoro(2-(((S)-1-((2S,4S)-4-((S)-1-((2S,4R)-1-((S)-2-(1-fluorocyclopropane-1-carboxamido)-3,3-dimethylbutanoyl)-4-hydroxypyrrolidin-2-yl)-3-(4-(4-methylthiazol-5-yl)phenyl)-1,5-dioxo-9,12,15-trioxa-2,6-diazaoctadecan-18-amido)-2-((R)-2-phenylmorpholine-4-carbonyl)pyrrolidin-1-yl)-3,3-dimethyl-1-oxobutan-2-yl)carbamoyl)benzo[b]thiophen-5-yl)methyl)phosphonic acid], the DC50 [1] is reported as > 10 µM.
For `Cc1ncsc1-c1ccc([C@H](C)NC(=O)[C@@H]2C[C@@H](O)CN2C(=O)[C@@H](NC(=O)CCCCCCCNC(=O)CC(=O)N2CCN(C(=O)[C@@H](NC(=O)c3cc4cc(C(F)(F)P(=O)(O)O)ccc4s3)C(C)(C)C)[C@H](C(=O)N3CCO[C@H](c4ccccc4)C3)C2)C(C)(C)C)cc1` [Compound 449, (difluoro(2-(((S)-1-((S)-4-(3-((8-(((S)-1-((2S,4R)-4-hydroxy-2-(((S)-1-(4-(4-methylthiazol-5-yl)phenyl)ethyl)carbamoyl)pyrrolidin-1-yl)-3,3-dimethyl-1-oxobutan-2-yl)amino)-8-oxooctyl)amino)-3-oxopropanoyl)-2-((R)-2-phenylmorpholine-4-carbonyl)piperazin-1-yl)-3,3-dimethyl-1-oxobutan-2-yl)carbamoyl)benzo[b]thiophen-5-yl)methyl)phosphonic acid], the DC50 [2] was > 10 µM and the DC50 [1] was > 10 µM.
For `Cc1ncsc1-c1ccc([C@H](C)NC(=O)[C@@H]2C[C@@H](O)CN2C(=O)[C@@H](NC(=O)CCCCCCNC(=O)COc2ccc3c(c2)CN(C(=O)[C@@H](NC(=O)c2cc4cc(C(F)(F)P(=O)(O)O)ccc4s2)C(C)(C)C)[C@H](C(=O)N2CCC[C@H](c4ccccc4)C2)C3)C(C)(C)C)cc1` [Compound 475, (difluoro(2-(((S)-1-((S)-7-(2-((7-(((S)-1-((2S,4R)-4-hydroxy-2-(((S)-1-(4-(4-methylthiazol-5-yl)phenyl)ethyl)carbamoyl)pyrrolidin-1-yl)-3,3-dimethyl-1-oxobutan-2-yl)amino)-7-oxoheptyl)amino)-2-oxoethoxy)-3-((R)-3-phenylpiperidine-1-carbonyl)-3,4-dihydroisoquinolin-2(1H)-yl)-3,3-dimethyl-1-oxobutan-2-yl)carbamoyl)benzo[b]thiophen-5-yl)methyl)phosphonic acid], the DC50 [1] was > 10 µM.
